Assay results as given in patent publication US10335417B2, “Thiazideamide derivative and use thereof” (Institute of Pharmacology and Toxicology Academy of …, priority 2015, dated 2019).

How the values were obtained:
[1] = tested on: chick embryo dorsal root ganglion; assay: in vitro serum-free culture model of chick embryonic dorsal root ganglion: neurite growth score with NGF; format: cell-based; conditions: 48 h, score 0-3, average of five ganglions, control 0.33
Protocol: The neurotrophic activity of the compounds according to the invention can be embodied in multiple in vitro biological models, such as in vitro serum-free culture model of chick embryonic dorsal root ganglion.
Experimental method: in a sterile environment, chick embryo, which had been incubated for 8 d, had the spinal and bilateral ganglion exposed under anatomical lens. Dorsal root ganglions were picked one by one using sharp forceps, and seeded in culture bottles spread with rat tail collagen, at a density of 5-6 ganglions per bottle, and two bottles for each dose. After attachment culture in a 37° C., 5% CO2 incubator for 1 h, serum-free medium DMEM containing nerve growth factor (NGF) (0.15 ng/mL), and the compound according to the invention were added. In the control group, only the medium and the same dose of NGF were added. After culture in the incubator for 48 h, the growth of neurite around dorsal root ganglion was observed under inverted phase contrast microscope, which was scored depending on the length and density of neurite.
Evaluation criteria: 0: no neurite; 1: rare long neurite; 2: relatively long or dense neurite; 3: long and dense neurite.

[2] = in vitro; conditions: dog, MDCK-MDR1
Source text: MDCK-MDR1 cells were monolayer cells which highly express P-gp transporter after transfection of MDCK (Madin-Darby canine kidney epithelial cell) with MDR1 gene. Due to its density and high expression of efflux protein, the monolayer has similarity compared to blood-brain barrier (BBB) structure and now can be used as one of models for evaluating the ability of passing through BBB. In the invention, MDCK-MDR1 cells were used to study the membrane permeability of the compounds according to the invention, and to primarily evaluate its ability of passing through BBB.
The frozen MDCK-MDR1 cells were quickly thawed in a 37° C. water bath. To the resuscitated cells, DMEM medium containing 10% FBS was added, and the cells were cultured in an incubator at 37° C., 5% CO2, and a relative humidity of 90%. The medium was changed every other day. After fusion of the cells growing for 1-2 days, the cells were digested with 0.25% trypsin-EDTA (0.2%) mixed digestion solution at 37° C., and were sub-cultured at a certain ratio. The cells for use in experiment were those passaged for 40-60 generations.
When the cell fusion degree reached 80%, the cells were digested and then suspended in complete medium, and seeded to Millicell plate at 1×10^6 cells·mL^−1. The medium was changed every other day, and 1 week later, the medium was changed every day. After culturing for 5 days, the resistance value reached a constant value (>200 Ω·cm^2), and the cells could be used in the transport experiment.
After washing with 37° C. HBSS twice, the cells were incubated in a 37° C. culture incubator, wherein Rho-123 was added to the upper wells, and HBSS was added to the bottom wells. The incubation was carried out in a constant temperature shaker, and the solutions from the bottom wells were collected at each time point (0 min, 30 min, 90 min, 120 min), and stored at −20° C. for further use. The amount of Rho-123 permeated to the bottom well was determined by fluorospectrophotometer, wherein the emission wavelength was […], and the excitation wavelength was 530 nm.
The permeability from cavity-surface to basal surface: drug-containing HBSS 0.35 mL was add to Apical (AP), and blank HBSS 1.2 mL was added to Basolateral (BL). The Millicell was placed at 37° C. in a shaker under shaking at 50 r·min^−1, 50 μL sample was collected from the bottom well at 0, 30, 90, 120 min, respectively, and the same volume of blank HBSS was supplemented. 3 wells were set for each concentration, and to the sample, an internal standard solution (50 μL) and ethyl acetate (350 μL) were added precisely. The mixture was mixed homogeneously under shaking, and centrifuged at 12000 rmp for 5 min. The supernatant (300 μL) was volatilized to dryness, and re-dissolved in 50 μL acetonitrile. The 10 μL resultant solution was used for determination.
The permeability from basal surface to cavity surface: the drug is added to Basolateral (BL), and blank HBSS was added to Apical (AP), and the other steps were the same as those of the experiment for determining the permeability from cavity-surface to basal surface.
The apparent permeability coefficient (Papp) of a drug reflects the ability of the drug to pass through cell monolayer and the drug absorption rate and extent. It can be calculated in accordance with the following equation: […]
wherein, Q represents the amount of drug permeated in the t period, A represents cell surface area, and represents the area (0.6 cm^2) of supporting film in this model, and C0 represents an initial concentration. The unit of Papp is expressed as cm·s^−1.
By measurement using LC/MS, the concentration of each sample was quantitated using its standard curve (50 nM-10000 nM).

[3] = tested on: BCAO-LBP mice (incomplete global cerebral ischemia); assay: mouse BCAO-LBP model of incomplete global cerebral ischemia: cerebral MDA content and neurological function score; format: in vivo, Kunmin mice
Source text: In the Example, Kunmin mice were used as experimental subjects, intragastric (i.g.) administration was used, mouse BCAO-LBP (bilateral carotid artery occlusion with low blood pressure) model was used, and by determining neurological function score and the cerebral malondialdehyde (MDA) content in mice, the compounds were investigated for their protective effects on incomplete global cerebral ischemia in mice when administered prophylactically.
2.1.2 Preparation of a drug for intragastric administration: the compound was prepared to a 1.5 mg/ml solution using 0.7% CMC-Na solution.
28 mice, which had adapted to the laboratory environment for 1 week, were evenly grouped depending on body weight. The mice were intragastrically administered with 0.7% CMC-Na or one of the compounds, once/d, for 3 d. The groups were as followed:
Administration group: 12 mice, intragastrically administered at a dose of 0.2 ml/10 g, i.e., the dose of the compound was 30 mg/kg.
2.3.1 Mouse bilateral carotid artery ligation: 1 h after the last administration, the mice were subjected to orbital bloodletting to reduce blood pressure (which was about 30% of the total blood volume of the mice), and then fixed in supine position on the operating table, and cut in the middle of neck. Carotid artery was subjected to blunt dissection, and 2 lines were used in ligation for each side. The time counting started after the ligation with the third line, the carotid artery was cut off between the two lines, and the incision was sewn up. In the Sham-operated group, the carotid artery was only separated without ligation. After the operation, the mice were unfixed quickly, and the mice were observed and recorded for the behaviors within 6 h (scoring depending on the following table using blind method) and the death time. The brains were taken quickly after the mice died, the cerebellums were removed, and the MDA content in the whole cerebrum was determined by thiobarbituric acid (TBA).
The cerebra of mice were taken and weighed, and were prepared into 15% brain homogenate using N.S. 1.2 ml brain homogenate was placed in a 37° C. water bath for 1 h (shaking once every 10 min) and then taken out. 20% trichloroacetic acid 0.6 ml was added, and the mixture was mixed well, and was on standing for 10 min. After centrifugation at 2000 rpm for 10 min, to 1.2 ml supernatant, 0.67% TBA 0.6 ml was added. The mixture was placed in a boiling water bath for 10 min, and was taken out for cooling, and the OD value at a wavelength of 532 nm was determined.
The experimental data was expressed as x±SEM; SPSS 13.0 statistic software was used. Homogeneity or heterogeneity of variance was determined by one-factor analysis of variance. In the case of homogeneity of variance, LSD test was used; in the case of heterogeneity of variance, Dunnett's T3 test was used. Significant difference among different groups was compared, and P<0.05 indicated statistical significance.

[4] = compound 100 pM + NGF 0.15 ng/mL

Compound | Average score (growth of neurites of chick embryo dorsal root ganglion) ([1]; compound 1 pM + NGF 0.15 ng/mL) | Average score (growth of neurites of chick embryo dorsal root ganglion) [1, 4] | Papp at 120 min [2] [×10⁻⁶ cm/s] | Neurologic deficit score ([3]; 30 mg/kg i.g. once/d for 3 d, behaviour within 6 h after ligation, x ± SEM, model group 3.92, sham 0.00) | neurologic deficit score decreased compared to the group administered with Compound 6 ([3]; 30 mg/kg i.g., BCAO-LBP mice) | MDA content ([3]; whole cerebrum, 30 mg/kg i.g. once/d for 3 d, x ± SEM, model group 40.94, sham 33.15) [nmol/g]
CCOC(=O)[C@H](Cc1ccccc1)NC(=O)[C@@H]1CSCCN1S(=O)(=O)c1ccc(C)cc1 [Compound 17, (S)-ethyl-3-phenyl-2((R)-(4-methylphenyl)sulfonyltetrahydro-1,4-thiazin-3-aminoformyl)propionate] | 1.75 | 2.71 | 22.7 | – | – | –
CCC(C)[C@H](NC(=O)[C@@H]1CSCCN1S(=O)(=O)c1ccc(C)cc1)C(=O)OC (stereo partly drawn) [Compound 8, (2S,3R)-methyl-3-methyl-2((R)-(4-methylphenyl)sulfonyltetrahydro-1,4-thiazin-3-aminoformyl)valerate] | 1.78 | 2.45 | 19.2 | 1.77 ± 0.28 | about 15% | 34.95 ± 1.55
Cc1ccc(S(=O)(=O)N2CCSC[C@H]2C(=O)N[C@H](C(=O)OC(C)(C)C)C(C)C)cc1 [Compound 12, (S)-tert-butyl-3-methyl-2((R)-(4-methylphenyl)sulfonyltetrahydro-1,4-thiazin-3-aminoformyl)butyrate] | 1.77 | 2.48 | 22.5 | – | – | –
COC(=O)[C@H](NC(=O)[C@@H]1CSCCN1S(=O)(=O)c1ccc(C)cc1)C(C)C [Compound 14, (R)-methyl-3-methyl-2((R)-(4-methylphenyl)sulfonyltetrahydro-1,4-thiazin-3-aminoformyl)butyrate] | 1.44 | 2.35 | 33.2 | – | – | –
Cc1ccc(S(=O)(=O)N2CCSC[C@H]2C(=O)N[C@@H](Cc2ccccc2)C(=O)OC(C)(C)C)cc1 [Compound 19, (S)-tert-butyl-3-phenyl-2((R)-(4-methylphenyl)sulfonyltetrahydro-1,4-thiazin-3-aminoformyl)propionate] | 1.55 | 2.49 | 42.3 | – | – | –
COC(=O)[C@H](Cc1ccccc1)NC(=O)[C@@H]1CSCCN1S(=O)(=O)c1ccc(C)cc1 [Compound 16, (S)-methyl-3-phenyl-2((R)-(4-methylphenyl)sulfonyltetrahydro-1,4-thiazin-3-aminoformyl)propionate] | 1.57 | 2.69 | 39.7 | – | – | –
COC(=O)[C@@H](NC(=O)[C@@H]1CSCCN1S(=O)(=O)c1ccc(C)cc1)C(C)C [Compound 10, (S)-methyl-3-methyl-2((R)-(4-methylphenyl)sulfonyltetrahydro-1,4-thiazin-3-aminoformyl)butyrate] | 1.54 | 2.38 | 34.1 | – | – | –
Cc1ccc(S(=O)(=O)N2CCSC[C@H]2C(=O)N[C@@H](CCc2ccccc2)C(=O)OC(C)C)cc1 [Compound 25, (S)-isopropyl-4-phenyl-2((R)-(4-methylphenyl)sulfonyltetrahydro-1,4-thiazin-3-aminoformyl)butyrate] | 1.76 | 2.68 | 27.3 | – | – | –
Cc1ccc(S(=O)(=O)N2CCSC[C@H]2C(=O)N[C@H](CCc2ccccc2)C(=O)OC(C)C)cc1 [Compound 26, (R)-isopropyl-4-phenyl-2((R)-(4-methylphenyl)sulfonyltetrahydro-1,4-thiazin-3-aminoformyl)butyrate] | 1.80 | 2.78 | 35.9 | – | – | –
Cc1ccc(S(=O)(=O)N2CCSC[C@H]2C(=O)N[C@H](Cc2ccccc2)C(=O)OC(C)C)cc1 [Compound 24, (R)-isopropyl-3-phenyl-2((R)-(4-methylphenyl)sulfonyltetrahydro-1,4-thiazin-3-aminoformyl)propionate] | 1.89 | 2.80 | 37.8 | – | – | –
CCOC(=O)[C@@H](Cc1ccccc1)NC(=O)[C@@H]1CSCCN1S(=O)(=O)c1ccc(C)cc1 [Compound 21, (R)-ethyl-3-phenyl-2((R)-(4-methylphenyl)sulfonyltetrahydro-1,4-thiazin-3-aminoformyl)propionate] | 1.79 | 2.74 | 25.8 | – | – | –
